In PubChem BioAssay AID248 (DTP/NCI, 2004):
“And” between values parts separate entries of the source, which are not always exact repeats. Identical values can stand only once. Toxic doses and inconclusive results are not listed. Cut-off read from the data, not from the text of the source: active = T/C of 150% or more; inactive = T/C below 125%.

Test system: L1210 leukemia ip in BDF1 mice, survival T/C
Test: NCI In Vivo Anticancer Drug Screen. Data for tumor model L1210 Leukemia (intraperitoneal) in B6D2F1 (BDF1) mice
Details: endpoint: mean survival time, higher = longer survival
Outline: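 Transplanted-tumor mice were given test agent; controls received vehicle only. Survival readings from the two groups were divided (treated over control).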

[1] = dose: 100.0 mg/kg/injection, schedule: Q01DX009 (ip), vehicle: saline
[2] = dose: 200.0 mg/kg/injection, schedule: Q01DX009 (ip), vehicle: saline
[3] = dose: 400.0 mg/kg/injection, schedule: Q01DX009 (ip), vehicle: saline
[4] = dose: 100.0 mg/kg/injection, schedule: Q01DX001 (ip), vehicle: saline
[5] = dose: 200.0 mg/kg/injection, schedule: Q01DX001 (ip), vehicle: saline
[6] = dose: 400.0 mg/kg/injection, schedule: Q01DX001 (ip), vehicle: saline
[7] = dose: 25.0 mg/kg/injection, schedule: Q04DX002 (ip), vehicle: saline
[8] = dose: 50.0 mg/kg/injection, schedule: Q04DX002 (ip), vehicle: saline
[9] = dose: 100.0 mg/kg/injection, schedule: Q04DX002 (ip), vehicle: saline

Measured: T/C

CCCCCCCCCCCCCCS
inactive: dose: 200.0 mg/kg/injection, schedule: Q01DX Z (ip), vehicle: methylcellulose (MC) 116 % of control | dose: 225.0 mg/kg/injection, schedule: Q01DX Z (ip), vehicle: methylcellulose (MC) 108 % of control | dose: 450.0 mg/kg/injection, schedule: Q01DX Z (ip), vehicle: methylcellulose (MC) 104 % of control | dose: 675.0 mg/kg/injection, schedule: Q01DX Z (ip), vehicle: methylcellulose (MC) 103 % of control

N#CC(C#N)=NNc1ccc(S(=O)(=O)O)cc1
inactive: dose: 100.0 mg/kg/injection, schedule: Q04DX003 (ip), vehicle: saline with Tween-80 94 % of control | dose: 200.0 mg/kg/injection, schedule: Q04DX003 (ip), vehicle: saline with Tween-80 107 % of control | dose: 400.0 mg/kg/injection, schedule: Q04DX003 (ip), vehicle: saline with Tween-80 102 % of control

CC(C)=CCNc1ncnc2c1c(C#N)cn2C1OC(CO)C(O)C1O (configuration not stated)
inactive: dose: 0.78 mg/kg/injection, schedule: Q01DX009 (ip), vehicle: saline 95 % of control | dose: 1.56 mg/kg/injection, schedule: Q01DX005 (ip), vehicle: saline 106 % of control | dose: 1.56 mg/kg/injection, schedule: Q01DX009 (ip), vehicle: saline 95 % of control | dose: 3.12 mg/kg/injection, schedule: Q01DX009 (ip), vehicle: saline 97 % of control

CS(=O)(=O)CC1OC(n2nnc3c(N)ncnc32)C(O)C1O (configuration not stated)
inactive: dose: 50.0 mg/kg/injection, schedule: Q01DX001 (ip), vehicle: saline with Tween-80 94 % of control | dose: 100.0 mg/kg/injection, schedule: Q01DX001 (ip), vehicle: saline with Tween-80 102 % of control | dose: 200.0 mg/kg/injection, schedule: Q01DX001 (ip), vehicle: saline with Tween-80 94 % of control

N#Cc1[nH]cnc1N1CC[N+](CCCl)=N1
inactive: [1] 104 % of control | [2] 103 % of control | [3] 95 % of control

O=CC(CCN1CCCCC1)(CCN1CCCCC1)c1cccc2ccccc12
inactive: dose: 25.0 mg/kg/injection, schedule: Q04DX002 (ip), vehicle: Klucel (hydroxypropylcellulose) (HPC) 107 % of control | dose: 50.0 mg/kg/injection, schedule: Q04DX002 (ip), vehicle: Klucel (hydroxypropylcellulose) (HPC) 100 % of control | dose: 100.0 mg/kg/injection, schedule: Q01DX009 (ip), vehicle: Klucel (hydroxypropylcellulose) (HPC) 105 % of control | dose: 100.0 mg/kg/injection, schedule: Q04DX002 (ip), vehicle: Klucel (hydroxypropylcellulose) (HPC) 98 % of control

Cn1c2c(c(=O)n(C)c1=O)C(=Nc1ccccc1)C(=O)N2
inactive: [4] 101 % of control | [5] 104 % of control | [6] 96 % of control

CC(C)=CCC/C(C)=C/CNc1ncnc2c1ncn2C1OC(CO)C(O)C1O (configuration not stated)
inactive: dose: 100.0 mg/kg/injection, schedule: Q01DX005 (ip), vehicle: saline 95 % of control | dose: 200.0 mg/kg/injection, schedule: Q01DX005 (ip), vehicle: saline 94 % of control

CC(=O)NCc1cccc[n+]1[O-]
inactive: [7] 110 % of control | [8] 105 % of control | [9] 101 % of control and 105 % of control

CCOC(=O)/C(C#N)=C/c1cccn1Cc1ccc2ccccc2c1
inactive: dose: 100.0 mg/kg/injection, schedule: Q04DX002 (ip), vehicle: saline with Tween-80 101 % of control | dose: 200.0 mg/kg/injection, schedule: Q04DX002 (ip), vehicle: saline with Tween-80 90 % of control | dose: 400.0 mg/kg/injection, schedule: Q04DX002 (ip), vehicle: saline with Tween-80 90 % of control

CC(=O)Nc1ccc(Oc2ccc(NC(C)=O)cc2)cc1
inactive: [7] 90 % of control | [8] 97 % of control | [9] 117 % of control

O=C1OC(/C=C/c2ccccc2)=NC/1=C\c1ccc(Cl)cc1
inactive: [1] 105 % of control | [2] 105 % of control | [3] 94 % of control

COc1cc([N+](=O)[O-])c(C)cc1NC(=O)c1ccc(OC)c(OC)c1
inactive: dose: 50.0 mg/kg/injection, schedule: Q01DX009 (ip), vehicle: saline 97 % of control | [1] 96 % of control | dose: 100.0 mg/kg/injection, schedule: Q04DX003 (ip), vehicle: saline 89 % of control | [2] 96 % of control | dose: 200.0 mg/kg/injection, schedule: Q04DX003 (ip), vehicle: saline 93 % of control | [3] 97 % of control | dose: 400.0 mg/kg/injection, schedule: Q04DX003 (ip), vehicle: saline 91 % of control

O/N=C1/CCCC/C1=C/c1ccc(Cl)cc1
inactive: dose: 100.0 mg/kg/injection, schedule: Q01DX009 (ip), vehicle: saline with Tween-80 104 % of control | dose: 200.0 mg/kg/injection, schedule: Q01DX009 (ip), vehicle: saline with Tween-80 111 % of control | dose: 400.0 mg/kg/injection, schedule: Q01DX009 (ip), vehicle: saline with Tween-80 88 % of control

CC(=O)c1ccncc1
inactive: dose: 50.0 mg/kg/injection, schedule: Q01DX001 (ip), vehicle: saline 94 % of control | [4] 89 % of control | [5] 94 % of control | [6] 94 % of control
